# US20240400555A1 (Initial Therapeutics, Inc., priority 2023, published 2024)
# System: MV-4-11 cells
# Assay: Cell Viability Assay in MV-4-11 Cells
# Format: cell-based
# Settings: Homo sapiens, MV4-11, 72 h
# In short: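 Luminescent ATP read-out (CellTiter-Glo) after 72 h compound treatment of MV-4-11 leukaemia cells (7,000 per well, IMDM plus 10% FBS). Values expressed relative to DMSO control and derived by four-parameter non-linear regression.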
row,Compound,IC50 [nM]
1,"CC(C)(O)C#Cc1cc2c(N(C(=O)c3ccc(-n4nnc5cccnc54)cc3F)[C@@H]3CCCNC3)nccc2s1 [Example 376, 2-fluoro-N-[2-(3-hydroxy-3-methyl-but-1-ynyl)thieno[3,2-c]pyridin-4-yl]-N-[(3R)-3-piperidyl]-4-(triazolo[4,5-b]pyridin-3-yl)benzamide]",680

# Same assay, conditions: Homo sapiens, MV4-11, 72 h, MV-4-11 cells, 72 h, Cell-Titer Glo; read-out: IC50
row,IC50 [nM],Compound
1,480,"Cc1nnc(-c2ccc(C(=O)N(c3nccc4c(Cl)ccc(C)c34)[C@@H]3CCCNC3)nc2)s1 [Example 857, N-(5-chloro-8-methyl-1-isoquinolyl)-5-(5-methyl-1,3,4-thiadiazol-2-yl)-N-[(3R)-3-piperidyl]pyridine-2-carboxamide]"
2,46,"Cc1cccc2ccnc(N(C(=O)c3ccc(Nc4nccc(N5CCCOCC5)n4)cc3F)[C@@H]3CCCNC3)c12 [Example 944, (R)-4-(4-(1,4-oxazepan-4-yl)pyrimidin-2-ylamino)-2-fluoro-N-(8-methylisoquinolin-1-yl)-N-(piperidin-3-yl)benzamide]"
3,120,"CNC(=O)c1ccc(-c2cc3c(N(C(=O)c4ccc(-n5nnc6cccnc65)cc4F)[C@@H]4CCCNC4)nccc3s2)cc1 [Example 380, 2-fluoro-N-[2-[4-(methylcarbamoyl)phenyl]thieno[3,2-c]pyridin-4-yl]-N-[(3R)-3-piperidyl]-4-(triazolo[4,5-b]pyridin-3-yl)benzamide]"
4,180,"Cc1cccc2ccnc(N(C(=O)c3ccc(Nc4nccc(N5CCNCC5)n4)cc3F)[C@@H]3CCCNC3)c12 [Example 718, (R)-2-fluoro-N-(8-methylisoquinolin-1-yl)-4-((4-(piperazin-1-yl)pyrimidin-2-yl)amino)-N-(piperidin-3-yl)benzamide]"
5,83,"Cc1cccc2ccnc(N(C(=O)c3ccc(Nc4nccc(C5=CCN(C)CC5)n4)cc3F)[C@@H]3CCCNC3)c12 [Example 682, (R)-2-fluoro-4-((4-(1-methyl-1,2,3,6-tetrahydropyridin-4-yl)pyrimidin-2-yl)amino)-N-(8-methylisoquinolin-1-yl)-N-(piperidin-3-yl)benzamide]"
6,130,"Cc1cccc2ccnc(N(C(=O)c3ccc(Nc4ncc5ccccc5n4)cc3F)[C@@H]3CCCNC3)c12 [Example 824, (R)-2-fluoro-N-(8-methylisoquinolin-1-yl)-N-(piperidin-3-yl)-4-(quinazolin-2-ylamino)benzamide]"
7,56,"Cc1cccc2ccnc(N(C(=O)c3ccc(Nc4nccc(-n5ccnc5)n4)cc3F)[C@@H]3CCCNC3)c12 [Example 724, (R)-4-((4-(1H-imidazol-1-yl)pyrimidin-2-yl)amino)-2-fluoro-N-(8-methylisoquinolin-1-yl)-N-(piperidin-3-yl)benzamide]"
8,45,"Cc1cccc2ccnc(N(C(=O)c3ccc(Nc4nccc(N5CCCCC5)n4)cc3F)[C@@H]3CCCNC3)c12 [Example 578, (R)-2-fluoro-N-(8-methylisoquinolin-1-yl)-4-((4-(piperidin-1-yl)pyrimidin-2-yl)amino)-N-(piperidin-3-yl)benzamide]"
9,75,"Cc1cccc2ccnc(N(C(=O)c3ccc(Nc4nccc(N5CC(O)C5)n4)cc3F)[C@@H]3CCCNC3)c12 [Example 680, (R)-2-fluoro-4-((4-(3-hydroxyazetidin-1-yl)pyrimidin-2-yl)amino)-N-(8-methylisoquinolin-1-yl)-N-(piperidin-3-yl)benzamide]"
10,1600,"CC(C)NS(=O)(=O)c1ccc(-c2cc3c(N(C(=O)c4ccc(-c5cn(C)nn5)cc4F)[C@@H]4CCCNC4)nccc3s2)cc1 [Example 537, 2-fluoro-N-[2-[4-(isopropylsulfamoyl)phenyl]thieno[3,2-c]pyridin-4-yl]-4-(1-methyltriazol-4-yl)-N-[(3R)-3-piperidyl]benzamide]"
11,> 5200,"COc1ccc(F)c2c(N(C(=O)c3ccc(-c4cn(C)nn4)cc3)[C@@H]3CCCNC3)nccc12 [Example 873, N-(8-fluoro-5-methoxy-1-isoquinolyl)-4-(1-methyltriazol-4-yl)-N-[(3R)-3-piperidyl] benzamide]"
